Measured values taken from PMC8126888 (RSC Medicinal Chemistry, 2020).
Where two headings read alike, the source gives them in different places.

Key:
in vitro [1] = settings: PAMPA
[2] = test system: Leishmania infantum MHOM/MA(BE)/67/ITMAP263 intracellular amastigotes; assay: microbe, parasite or virus in culture; settings: Macrophage, in Mus musculus
[3] = test system: primary peritoneal mouse macrophages (PMM); assay: cells; settings: Macrophage, read-out: PMM IC50
in vitro [4] = settings: human, HepG2 cells
[5] = test system: Trypanosoma cruzi, Tulahuen CL2, beta-galactosidase strain; assay: microbe, parasite or virus in culture; settings: MRC5, read-out: T. cruzi Tulahuen C4 (LacZ) IC50
in vitro [6] = settings: human, microsomes, pH 7.4, HLM CLint, human liver microsomes
in vitro [7] = settings: human
in vitro [8] = settings: human, HFF-1 cells
in vitro [9] = settings: mouse, microsomes, pH 7.4, MLM CLint, mouse liver microsomes
physchem = settings: HPLC, Ascentis Express RP Amide column, pH 7.4, eLogD
[10] = test system: primary peritoneal mouse macrophages (PMM); assay: Cytotoxicity to PMM (microscopic scoring within susceptibility assay)
[11] = test system: Leishmania infantum MHOM/MA(BE)/67/ITMAP263 intracellular amastigotes
MRC-5SV2 cells = assay: Cytotoxicity assay on MRC-5SV2 cells (resazurin)
[12] = test system: L. donovani MHOM/ET/67/L82 intracellular amastigotes; settings: read-out: L. donovani MHOM/ET/67/L82 intracellular amastigotes IC50
[13] = test system: primary peritoneal mouse macrophages (PMM); settings: PMM IC50 / L. infantum IC50
in vitro [14] = settings: PAMPA; remark: listed apart in the source
in vitro [15] = settings: Swiss, mouse
[16] = read-out: L. Inf. pIC50, from L. infantum intracellular amastigote IC50 (converted)
[17] = read-out: L. infantum MHOM/MA(BE)/67/ITMAP263 intracellular amastigotes IC50, intracellular amastigotes
[18] = read-out: L. infantum MHOM/MA(BE)/67/ITMAP263 intracellular amastigotes IC50

| SMILES | Papp (in vitro [1]) [×10⁻⁶ cm/s] | IC50 [2, 16] [µM] | IC50 [2, 17] [µM] | IC50 [3] [µM] | CC50 (in vitro [4]) [µM] | IC50 [5] [µM] | microsomal CLint at 0.5 μM (in vitro [6]) [µL/min/mg] | CC50 at 3 days (in vitro [7]) [µM] | CC50 (in vitro [8]) [µM] | microsomal CLint at 0.5 μM (in vitro [9]) [µL/min/mg] | chromatographic logD (physchem; experimental) | also measured |
| --- | --- | --- | --- | --- | --- | --- | --- | --- | --- | --- | --- | --- |
| COc1ccc(OC)c(S(=O)(=O)N2CCC(c3ccccc3)CC2)c1 [DNDI0003370422] | 6.45 | > 64 | > 64 | > 64 | 63.9 | 16.9 | 1610 | > 64 | 4.56 | 664 | 4.2 | – |
| CCN(Cc1ccccc1)S(=O)(=O)c1cc(OC)c(C)cc1OC [Compound Z2235810678] | – | – | – | – | – | – | – | – | – | – | – | IC50 [10]: > 32 µM; L. Inf. pIC50 ([11]; from L. infantum intracellular amastigote IC50): 5.97; IC50 [11, 18]: 1.08 µM; CC50 (MRC-5SV2 cells): > 32 µM; IC50 [12]: 6.35 µM; SI (vs PMM) [13]: 30 |
| Nc1ncccc1S(=O)(=O)N(Cc1ccc(F)cc1)Cc1ccc(F)cc1 [DNDI0003371163] | 2.18 | > 64 | > 64 | > 64 | > 64 | 42 | 164 | > 64 | 52.2 | 447 | 4.2 | – |
| COc1ccc(C#N)cc1S(=O)(=O)N(Cc1ccc(F)cc1)Cc1oc(C)nc1C [DNDI0003370421] | 14.8 | 7.94 | 7.89 | > 64 | > 64 | 26.1 | 392 | 49.1 | 1.91 | 721 | 3.7 | – |
| O=c1[nH]cccc1S(=O)(=O)N(Cc1ccc(F)cc1)Cc1ccc(F)cc1 [DNDI0003371165] | 23.6 | > 64 | > 64 | > 64 | > 64 | 42.3 | 44 | > 64 | 23.2 | 218 | 3.8 | – |
| COc1ccc(C#N)cc1S(=O)(=O)N(Cc1ccc(F)cc1)Cc1ccc(C#N)cc1 [DNDI0003371171] | – | 33.1 | 33.2 | > 64 | > 64 | 30.4 | – | > 64 | > 64 | – | – | – |
| Cn1cccc(S(=O)(=O)N(Cc2ccc(F)cc2)Cc2ccc(F)cc2)c1=O [DNDI0003371168] | 18.3 | 20.4 | 20.5 | > 64 | > 64 | 24.5 | 222 | > 64 | 62.5 | 629 | 3.8 | – |
| [2H]C([2H])([2H])Oc1ncccc1S(=O)(=O)N(Cc1ccc(F)cc1)Cc1ccc(F)cc1 [DNDI0003371166] | 4.95 | 32.4 | 32.1 | > 64 | 18.9 | 20.8 | 14 | > 64 | 41.8 | 123 | 3.5 | – |
| COc1ccc(S(C)(=O)=O)cc1S(=O)(=O)N(Cc1ccc(F)cc1)Cc1ccc(F)cc1 [DNDI0003371164] | 2.57 | 1.29 | 1.28 | > 64 | 41.7 | 22 | 296 | > 64 | 24.3 | – | – | – |
| O=S(=O)(c1cccnc1OC(F)F)N(Cc1ccc(F)cc1)Cc1ccc(F)cc1 [DNDI0003371167] | 0.98 | 9.33 | 9.4 | > 64 | > 64 | 31.2 | 751 | > 64 | > 64 | 3070 | 4.8 | – |
| CNc1ncccc1S(=O)(=O)N(Cc1ccc(F)cc1)Cc1ccc(F)cc1 [DNDI0003371162] | 1.61 | 3.55 | 3.54 | > 64 | 16.9 | 14.5 | 401 | > 64 | > 64 | 984 | 4.5 | – |
| COc1ccc(OC)c(S(=O)(=O)N(Cc2ccc(F)cc2)c2ccc(F)cc2)c1 [DNDI0003371170] | 1.83 | 11.2 | 11.3 | > 64 | 23.3 | 15.1 | 417 | > 64 | 30.7 | 703 | – | – |
| COc1ccc(OC)c(S(=O)(=O)N(Cc2ccc(F)cc2)Cc2ncccn2)c1 [DNDI0003370419] | 25.1 | 13.8 | 13.8 | > 64 | > 64 | 38.8 | 115 | > 64 | 19.1 | 844 | 3.4 | – |
| COc1ncccc1S(=O)(=O)N(Cc1ccc(F)cc1)Cc1ccc(F)cc1 [DNDI0003371169] | 2.56 | 12.9 | 13 | > 64 | > 64 | 44.2 | 334 | > 64 | > 64 | 1170 | 4.4 | – |
| COc1ccc(OC)c(S(=O)(=O)N(Cc2ccc(F)cc2)Cc2oc(C)nc2C)c1 [DNDI0003370420] | 46.4 | 2.34 | 2.34 | > 64 | > 64 | 24.9 | 376 | > 64 | 1.24 | 2280 | 3.8 | – |
| CCN(Cc1ccccc1)S(=O)(=O)c1ccccc1OC(F)(F)F [DNDI0003364252] | – | 8.51 | – | – | – | 22.4 | 1180 | > 64 | – | 2340 | – | IC50 [2, 18]: 8.47 µM; Papp (in vitro [14]): 1.18 ×10⁻⁶ cm/s; IC50 (in vitro [15]): > 64 µM; SI (vs PMM) [13]: 8; chromatographic logD (physchem): 4.5 |
